Laboratory results reported in ChEMBL document CHEMBL5291721, “A preclinical secondary pharmacology resource illuminates target-adverse drug reaction associations of marketed drugs” (Nat Commun, 2023).

Key:
[1] = target: T1, Muscarinic acetylcholine receptor M1 (Homo sapiens, UniProt P11229); format: functional
T1 sequence (P11229 whole entry): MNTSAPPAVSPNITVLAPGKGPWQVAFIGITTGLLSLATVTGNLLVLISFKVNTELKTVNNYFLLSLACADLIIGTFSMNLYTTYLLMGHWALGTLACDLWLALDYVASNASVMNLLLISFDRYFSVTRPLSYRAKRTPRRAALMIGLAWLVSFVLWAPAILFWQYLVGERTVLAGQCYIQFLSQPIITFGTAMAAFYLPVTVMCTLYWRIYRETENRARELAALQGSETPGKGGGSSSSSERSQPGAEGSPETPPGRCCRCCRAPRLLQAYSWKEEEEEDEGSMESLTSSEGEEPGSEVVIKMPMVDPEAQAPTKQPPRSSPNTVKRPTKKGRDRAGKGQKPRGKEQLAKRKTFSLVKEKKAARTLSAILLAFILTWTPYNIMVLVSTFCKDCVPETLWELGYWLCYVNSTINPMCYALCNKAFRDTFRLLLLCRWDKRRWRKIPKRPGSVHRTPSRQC

[2] = target: T2, Muscarinic acetylcholine receptor M2 (Homo sapiens, UniProt P08172); format: functional, cell-based
T2 sequence (P08172 whole entry): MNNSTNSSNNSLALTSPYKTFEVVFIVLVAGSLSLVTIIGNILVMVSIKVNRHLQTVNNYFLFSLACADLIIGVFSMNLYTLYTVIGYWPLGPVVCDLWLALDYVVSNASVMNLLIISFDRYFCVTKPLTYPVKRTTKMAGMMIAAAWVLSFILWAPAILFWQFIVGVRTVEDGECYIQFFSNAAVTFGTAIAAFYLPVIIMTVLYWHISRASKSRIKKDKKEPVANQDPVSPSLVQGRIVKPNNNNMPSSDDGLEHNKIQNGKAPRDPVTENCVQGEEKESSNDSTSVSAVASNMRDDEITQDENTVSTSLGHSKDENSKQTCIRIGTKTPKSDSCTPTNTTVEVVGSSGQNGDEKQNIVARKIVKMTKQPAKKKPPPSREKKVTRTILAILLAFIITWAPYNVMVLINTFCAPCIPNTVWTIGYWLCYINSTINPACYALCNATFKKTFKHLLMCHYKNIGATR

[3] = target: Neuronal acetylcholine receptor subunit alpha-4 (Homo sapiens, UniProt P43681)
Sequence of Neuronal acetylcholine receptor subunit alpha-4 (P43681 whole entry): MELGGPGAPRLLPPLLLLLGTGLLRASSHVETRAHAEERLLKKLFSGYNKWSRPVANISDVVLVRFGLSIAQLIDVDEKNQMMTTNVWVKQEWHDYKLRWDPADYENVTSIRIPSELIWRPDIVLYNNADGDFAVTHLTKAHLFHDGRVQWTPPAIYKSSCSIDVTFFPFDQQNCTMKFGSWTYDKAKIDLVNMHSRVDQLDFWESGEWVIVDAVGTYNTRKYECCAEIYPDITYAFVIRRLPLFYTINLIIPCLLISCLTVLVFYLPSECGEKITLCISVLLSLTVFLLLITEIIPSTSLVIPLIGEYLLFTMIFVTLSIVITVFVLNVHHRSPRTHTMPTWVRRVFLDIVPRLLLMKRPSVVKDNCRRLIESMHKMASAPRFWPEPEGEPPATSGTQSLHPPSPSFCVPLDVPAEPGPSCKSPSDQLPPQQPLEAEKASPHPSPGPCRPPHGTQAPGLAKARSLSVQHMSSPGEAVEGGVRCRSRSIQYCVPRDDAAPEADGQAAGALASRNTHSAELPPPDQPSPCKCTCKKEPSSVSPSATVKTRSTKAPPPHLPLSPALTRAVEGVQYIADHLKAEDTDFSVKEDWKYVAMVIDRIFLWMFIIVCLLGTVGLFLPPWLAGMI

Endothelin-1 receptor = target: T3, Endothelin-1 receptor (Homo sapiens, UniProt P25101)
T3 sequence (P25101 whole entry): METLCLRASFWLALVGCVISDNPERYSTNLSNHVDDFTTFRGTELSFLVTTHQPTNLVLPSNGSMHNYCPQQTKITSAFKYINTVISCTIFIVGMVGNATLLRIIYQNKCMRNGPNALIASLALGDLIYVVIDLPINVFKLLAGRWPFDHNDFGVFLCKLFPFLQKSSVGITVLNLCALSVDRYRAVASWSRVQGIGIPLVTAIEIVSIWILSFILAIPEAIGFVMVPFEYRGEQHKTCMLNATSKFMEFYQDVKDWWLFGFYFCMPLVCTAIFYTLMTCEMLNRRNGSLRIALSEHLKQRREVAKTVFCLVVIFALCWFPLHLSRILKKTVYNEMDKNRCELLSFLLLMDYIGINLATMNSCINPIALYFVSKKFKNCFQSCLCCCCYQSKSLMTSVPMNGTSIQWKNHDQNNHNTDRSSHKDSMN

[4] = target: Growth hormone secretagogue receptor type 1 (Homo sapiens, UniProt Q92847)
Sequence of Growth hormone secretagogue receptor type 1 (Q92847 whole entry): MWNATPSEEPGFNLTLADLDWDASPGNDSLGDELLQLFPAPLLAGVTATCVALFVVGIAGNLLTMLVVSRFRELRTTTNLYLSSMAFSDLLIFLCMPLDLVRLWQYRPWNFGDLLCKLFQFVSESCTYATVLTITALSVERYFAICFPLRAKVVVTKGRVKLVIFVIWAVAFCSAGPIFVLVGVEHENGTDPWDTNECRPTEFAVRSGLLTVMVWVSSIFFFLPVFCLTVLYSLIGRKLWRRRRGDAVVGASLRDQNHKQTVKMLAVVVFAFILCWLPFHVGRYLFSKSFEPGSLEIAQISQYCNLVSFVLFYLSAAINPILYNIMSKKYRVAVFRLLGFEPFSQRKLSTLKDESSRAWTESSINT

Histamine H2 receptor = Histamine H2 receptor (Homo sapiens, UniProt P25021); format: functional, cell-based
Sequence of Histamine H2 receptor (P25021 whole entry): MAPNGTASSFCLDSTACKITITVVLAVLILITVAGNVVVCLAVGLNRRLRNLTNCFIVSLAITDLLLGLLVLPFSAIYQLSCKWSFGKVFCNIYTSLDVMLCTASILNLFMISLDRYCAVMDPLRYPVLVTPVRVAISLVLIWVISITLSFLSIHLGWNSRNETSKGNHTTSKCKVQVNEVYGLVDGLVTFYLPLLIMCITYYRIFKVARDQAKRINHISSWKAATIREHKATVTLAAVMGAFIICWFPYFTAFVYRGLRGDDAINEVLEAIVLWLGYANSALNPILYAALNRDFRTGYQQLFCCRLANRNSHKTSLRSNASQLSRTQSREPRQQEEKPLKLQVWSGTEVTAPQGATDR

[5] = target: T4, 5-hydroxytryptamine receptor 2C (Homo sapiens, UniProt P28335)
T4 sequence (P28335 whole entry): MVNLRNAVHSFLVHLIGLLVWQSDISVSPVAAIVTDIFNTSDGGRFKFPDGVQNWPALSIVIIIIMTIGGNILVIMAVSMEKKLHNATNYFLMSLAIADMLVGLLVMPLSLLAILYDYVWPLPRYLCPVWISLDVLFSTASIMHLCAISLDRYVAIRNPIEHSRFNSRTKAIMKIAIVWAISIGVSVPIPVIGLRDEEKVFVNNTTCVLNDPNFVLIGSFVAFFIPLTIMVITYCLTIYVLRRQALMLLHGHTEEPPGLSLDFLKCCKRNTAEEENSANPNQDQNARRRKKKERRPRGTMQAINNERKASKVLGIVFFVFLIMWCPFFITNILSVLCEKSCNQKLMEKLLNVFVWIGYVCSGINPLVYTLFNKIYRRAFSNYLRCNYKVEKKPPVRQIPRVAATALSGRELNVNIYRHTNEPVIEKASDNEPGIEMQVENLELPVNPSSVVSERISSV

[6] = target: T5, Equilibrative nucleoside transporter 1 (Homo sapiens, UniProt Q99808)
T5 sequence (Q99808 whole entry): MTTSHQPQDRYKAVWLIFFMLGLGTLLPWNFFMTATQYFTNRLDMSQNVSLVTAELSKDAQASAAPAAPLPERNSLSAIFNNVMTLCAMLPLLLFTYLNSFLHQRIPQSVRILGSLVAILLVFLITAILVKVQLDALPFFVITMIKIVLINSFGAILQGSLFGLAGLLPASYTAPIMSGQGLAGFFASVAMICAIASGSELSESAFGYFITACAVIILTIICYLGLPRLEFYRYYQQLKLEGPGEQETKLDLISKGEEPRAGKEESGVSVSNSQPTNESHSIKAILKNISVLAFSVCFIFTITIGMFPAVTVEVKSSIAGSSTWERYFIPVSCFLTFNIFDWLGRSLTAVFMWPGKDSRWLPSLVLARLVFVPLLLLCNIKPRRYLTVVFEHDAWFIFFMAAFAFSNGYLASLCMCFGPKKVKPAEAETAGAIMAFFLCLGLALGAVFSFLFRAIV
Further: assay procedure not described here.

| Structure (SMILES) | AC50 [1] [µM] | AC50 [2] [µM] | AC50 [3] [µM] | AC50 (Endothelin-1 receptor) [µM] | AC50 [4] [µM] | AC50 (Histamine H2 receptor) [µM] | AC50 [5] [µM] | AC50 [6] [µM] |
| --- | --- | --- | --- | --- | --- | --- | --- | --- |
| CN1CCCN=C1/C=C/c1cccc(O)c1 [OXANTEL] | > 30 | > 30 | 7.2 | > 30 | > 30 | > 30 | > 30 |  |
| CC(=O)OCC(=O)[C@@]1(O)CC[C@H]2[C@@H]3CCC4=CC(=O)CC[C@]4(C)[C@@]3(F)[C@@H](O)C[C@@]21C [FLUDROCORTISONE ACETATE] |  | > 30 | > 30 | > 30 | > 30 | > 30 | > 30 | > 30 |
| CCCCCCOC(=O)NC(=N)c1ccc(NCc2nc3cc(C(=O)N(CCC(=O)OCC)c4ccccn4)ccc3n2C)cc1 [DABIGATRAN ETEXILATE] | > 30 | > 30 | > 30 | > 30 | > 30 | > 30 | > 30 | > 30 |
| O=C(O)c1nn(Cc2ccc(Cl)cc2Cl)c2ccccc12 [LONIDAMINE] | > 30 | > 30 | > 30 | > 30 | > 30 | > 30 | > 30 | > 30 |
| CS(=O)(=O)NC(=O)CCC/C=C\C[C@H]1C(=O)C[C@@H](O)[C@@H]1/C=C/[C@@H](O)COc1ccccc1 [SULPROSTONE] | > 30 | > 30 | > 30 | > 30 | > 30 | > 30 | > 30 | > 30 |
| CCN(CC)CC(=O)Nc1c(C)cccc1C [LIDOCAINE] |  |  |  | > 30 | > 30 |  |  | > 30 |
| O=C(O)c1ccc2nc(-c3cc(Cl)cc(Cl)c3)oc2c1 | > 30 | > 30 | > 30 | > 30 | > 30 | > 30 | > 30 | > 30 |
| CCN(CC)Cc1nccn1-c1ccc([N+](=O)[O-])cc1C(=O)c1ccccc1Cl [NIZOFENONE] | > 30 | > 30 | 8.3 | > 30 | > 30 | > 30 | > 30 | > 30 |
| CNCCc1ccccn1 [BETAHISTINE] |  | > 30 | > 30 | > 30 | > 30 | > 30 | > 30 | > 30 |
| CC(=O)OCC1=C(C(=O)O)N2C(=O)[C@@H](NC(=O)Cc3cccs3)[C@H]2SC1 [CEPHALOTHIN] | > 30 | > 30 | > 30 | > 30 | > 30 | > 30 | > 30 | > 30 |
| O=C(O[C@H]1C[N+]2(CCCOc3ccccc3)CCC1CC2)C(O)(c1cccs1)c1cccs1 [ACLIDINIUM BROMIDE] | 0.018 |  | > 10 | > 30 | > 30 |  | > 30 | > 30 |
| CCCCCCCC(=O)CC[C@@H]1[C@@H](C/C=C\CCCC(=O)O)[C@@H](O)C[C@H]1O [UNOPROSTONE] | > 30 | > 30 | > 30 | > 30 | > 30 | > 30 | > 30 | > 30 |
| CC(=O)Oc1cccc2c1C(=O)c1c(OC(C)=O)cc(C(=O)O)cc1C2=O [DIACEREIN] | 19 | 12 | 27 | > 30 | > 30 | > 30 | > 30 | 4.8 |
| CN(C)CCOCC(=O)NC12CC3CC(CC(C3)C1)C2 [TROMANTADINE] | > 30 | > 30 | > 30 | > 30 | > 30 | > 30 | > 30 | > 30 |
| CO/N=C(\C(=O)N[C@@H]1C(=O)N2C(C(=O)[O-])=C(C[n+]3ccc(N)n3CCO)CS[C@H]12)c1csc(N)n1 [CEFOSELIS] | > 30 | > 30 | > 30 | > 30 | > 30 | > 30 | > 30 | > 30 |
| COc1cc(N)cn[n+]1-c1ccccc1 [AMEZINIUM METILSULFATE] | > 30 | > 30 | > 10 | > 30 | > 30 | > 30 | > 30 | > 30 |
| Cc1ccc(S(=O)(=O)NC(=O)N[C@H]2[C@H]3CC[C@@](C)([C@H]2O)C3(C)C)cc1 [GLIBORNURIDE] | > 30 | > 30 | > 30 | > 30 | > 30 | > 30 | > 30 | > 30 |
| CCCCOC(=O)c1ccc(N)cc1 [BUTAMBEN] |  | > 30 | > 30 | > 30 | > 30 | > 30 | > 30 | > 30 |
| CCCCC[C@H](O)CC[C@@H]1[C@H]2Cc3cccc(OCC(=O)O)c3C[C@H]2C[C@H]1O [TREPROSTINIL] | > 30 | > 30 | > 30 | > 30 | > 30 | > 30 |  | > 30 |
| O=C(O)CCCC[C@@H]1SC[C@@H]2NC(=O)N[C@@H]21 [BIOTIN] | > 10 | > 10 | > 10 |  | > 10 | > 10 | > 30 | > 10 |
| CC(NC(C)(C)C)C(=O)c1cccc(Cl)c1 (configuration not stated) [BUPROPION] |  | > 10 |  | > 30 | > 30 | > 10 | > 30 | > 30 |
| NS(=O)(=O)c1ccc(N2CCCCS2(=O)=O)cc1 | > 30 | > 30 | > 30 | > 30 | > 30 | > 30 | > 30 |  |
| CCCCOC(=O)C(=O)Nc1cccc(-c2nnn[nH]2)c1 [TAZANOLAST] | > 30 | > 30 | > 30 | > 30 | > 30 | > 30 |  | > 30 |
